In patent publication US20240092803A1, “BRIDGED COMPOUNDS AS KRAS G12D INHIBITOR AND DEGRADER AND THE USE THEREOF” (BEIGENE SWITZERLAND GMBH, priority 2021, published 2024):

Key:
[1] = target: GST-tagged KRAS (amino acids 1-188) G12D binding to His-tagged SOS1 (Homo sapiens (Human), UniProt P01116, G12D); test: KRAS G12D:SOS1 GDP TR-FRET assay; conditions: GDP 10 μM; KRAS G12D 37.5 nM; SOS1 18 nM
Procedure: (§1) KRAS: SOS1 GDP TR-FRET Assay
(§2) This assay was used to identify compounds which competitively interact with the binding of KRAS protein to SOS1 in the presence of GDP. GST-tagged WT KRAS (amino acids 1-188), GST-tagged KRAS (amino acids 1-188) G12D and His- tagged SOS1 protein (amino acids 564-1049) was expressed in E. coli and purified. All protein and reaction solutions were prepared in assay buffer containing DPBS pH7.5, 0.1% BSA, and 0.05% Tween 20. Purified GST-tagged WT KRAS or KRAS G12D protein (37.5 nM final assay concentration) and GDP (Sigma, 10 μM final assay concentration) mixture, a serially diluted compound (top final concentration is 50 uM or 10 uM, 3-fold serially diluted, 10 points) and His-tagged SOS1 protein (18 nM final assay concentration) were added into the assay plates (384 well microplate, black, Corning) sequentially. Plates are incubated at 24° C. for 1 hr. Following the incubation, Mab Anti-6His-Tb cryptate (Cisbio) and Mab Anti GST-D2 (Cisbio) were added and further incubated at 24° C. for another 1 hr. The TR-FRET signals (ex337nm, em665nm/620nm) were read on BMG PHERAstar FSX instrument. The inhibition percentage of KRAS protein binding with SOS1 in presence of increasing concentrations of compounds was calculated based on the ratio of fluorescence at 665 nm to that at 620 nm. The IC50 value of each compound was calculated from fitting the data to the four-parameter logistic model by Dotmatics.

[2] = target: GST-tagged WT KRAS (amino acids 1-188) binding to His-tagged SOS1 (Homo sapiens (Human), UniProt P01116); test: KRAS WT:SOS1 GDP TR-FRET assay; conditions: GDP 10 μM; WT KRAS 37.5 nM; SOS1 18 nM
Sequence of GST-tagged WT KRAS (amino acids 1-188) binding to His-tagged SOS1 (P01116 other isoform, or with tags, fused parts or gaps): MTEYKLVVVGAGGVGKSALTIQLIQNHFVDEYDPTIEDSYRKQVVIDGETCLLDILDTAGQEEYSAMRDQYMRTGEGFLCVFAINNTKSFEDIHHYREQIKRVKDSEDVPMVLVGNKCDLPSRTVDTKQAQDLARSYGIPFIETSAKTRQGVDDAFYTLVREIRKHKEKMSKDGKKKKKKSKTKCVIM
Procedure: as §1, §2

[3] = tested on: pERK1/2(THR202/TYR204) level in AsPC-1 cells; test: pERK assay (HTRF) in AsPC-1 cells; format: cell-based; conditions: Homo sapiens, ASPC1, 2 h compound treatment
Procedure: AsPC-1 cell line was used in this study. Cells were maintained in RPMI-1640 supplemented with 10% fetal bovine serum (Thermo Fisher), 50 units/mL penicillin and streptomycin (Thermo Fisher) and kept at 37° C. in a humidified atmosphere of 5% CO2 in air. Cells were reinstated from frozen stocks that were laid down within 30 passages from the original cells purchased. 30000 cells per well were seeded into a 96-well plate and incubated overnight. Cells were treated with a 10-point dilution series. The final compound concentration is from 0 to 10 μM. After 2 h compound treatment, cells were lysed, and the pERK1/2(THR202/TYR204) level in the cell lysates was detected by HTRF kit (Cisbio). In brief, a total of 16 μl of cell lysate from each well of a 96-well plate was transferred to a 384-well white assay plate. Lysate from each well was incubated with 2 μL of Eu3+- cryptate (donor) labeled anti-phospho-ERK1/2 and 2 μL of D2 (acceptor) labeled anti-phospho-ERK1/2 antibodies (Cisbio) overnight in dark at room temperature. When donor and acceptor are in close proximity, excitation of the donor with laser triggers a Fluorescence Resonance Energy Transfer (FRET) towards the acceptor, which in turn fluoresces at 655 nm wavelength. FRET signals were measured using a PHERAstar FSX reader (BMG Labtech). IC50 determination was performed by fitting the curve of percent inhibition versus the log of the inhibitor concentration using Dotmatics.

Sequence of GST-tagged KRAS (amino acids 1-188) G12D binding to His-tagged SOS1 (P01116 other isoform, or with tags, fused parts or gaps G12D): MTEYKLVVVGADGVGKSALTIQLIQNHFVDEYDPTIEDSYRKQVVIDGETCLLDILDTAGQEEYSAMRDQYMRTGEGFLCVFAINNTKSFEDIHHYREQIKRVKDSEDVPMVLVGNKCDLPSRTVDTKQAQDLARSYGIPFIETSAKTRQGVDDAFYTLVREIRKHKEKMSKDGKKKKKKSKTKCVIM

In the case of `CO[C@@H]1C[C@@H](COc2nc3c(c(N4CC5CCC(C4)N5)n2)CCN(c2cccc4cccc(Cl)c24)C3)N(C)C1` [Example 14, 4-(3,8-diazabicyclo[3.2.1]octan-3-yl)-7-(8-chloronaphthalen-1-yl)-2-(((2S,4R)-4-methoxy-1-methylpyrrolidin-2-yl)methoxy)-5,6,7,8-tetrahydropyrido[3,4-d]pyrimidine], the IC50 [1] is reported as 0.126 µM, the IC50 [2] is reported as greater than 10 µM and the IC50 [3] is reported as greater than 10 µM.

`Cc1cccc2cccc(N3CCc4c(nc(OC[C@@H]5CCCN5C)nc4N4CC5CCC(C4)N5)C3)c12` [Example 5, 4-(3,8-diazabicyclo[3.2.1]octan-3-yl)-7-(8-methylnaphthalen-1-yl)-2-(((S)-1-methylpyrrolidin-2-yl)methoxy)-5,6,7,8-tetrahydropyrido[3,4-d]pyrimidine] gave an IC50 [1] of 0.118 µM, an IC50 [2] greater than 50 µM and an IC50 [3] greater than 10 µM.

In the case of `CN1CCC[C@H]1COc1nc2c(c(N3CC4CCC(C3)N4)n1)CCN(c1cc(N)cc(Cl)c1Cl)C2` [Example 13], the IC50 [1] is reported as 0.027 µM, the IC50 [2] is reported as greater than 10 µM and the IC50 [3] is reported as 4.1 µM.

Work on `CN1CCC[C@H]1COc1nc2c(c(N3CC4CCC(C3)N4)n1)CCN(c1cc(O)cc3ccccc13)C2` [Example 10] yielded an IC50 [1] of 0.022 µM and an IC50 [2] of 6.21 µM.

`Cc1cccc2cccc(N3CCc4c(nc(OC[C@@H]5CCCN5C)nc4N4CC5CC(C4)N5)C3)c12` [Example 8, 3-(7-(8-methylnaphthalen-1-yl)-2-(((S)-1-methylpyrrolidin-2-yl)methoxy)-5,6,7,8-tetrahydropyrido[3,4-d]pyrimidin-4-yl)-3,6-diazabicyclo[3.1.1]heptane] gave an IC50 [1] of 0.749 µM and an IC50 [2] greater than 10 µM.

`CN1CCC[C@H]1COc1nc2c(c(N3C4CCC3CNC4)n1)CCN(c1cccc3cccc(Cl)c13)C2` [Example 3, 4-(3,8-diazabicyclo[3.2.1]octan-8-yl)-7-(8-chloronaphthalen-1-yl)-2-(((S)-methylpyrrolidin-2-yl)methoxy)-5,6,7,8-tetrahydropyrido[3,4-d]pyrimidine] was tested, and the IC50 [1] was 0.635 µM and the IC50 [2] was greater than 50 µM.

In the case of `Cc1cccc2cccc(N3CCc4c(nc(OC[C@@H]5CCCN5C)nc4N4C5CCC4C(N)C5)C3)c12` (stereo partly drawn) [Example 2, 7-(7-(8-methylnaphthalen-1-yl)-2-(((S)-1-methylpyrrolidin-2-yl)methoxy)-5,6,7,8-tetrahydropyrido[3,4-d]pyrimidin-4-yl)-7-azabicyclo[2.2.1]heptan-2-amine], the IC50 [1] is reported as 4.5 µM and the IC50 [2] is reported as 34.2 µM.

`CN1CCC[C@H]1COc1nc2c(c(N3CC4CCC(C3)N4)n1)CCN(c1cc(N)cc(Cl)c1C(F)(F)F)C2` [Example 12, 3-(4-(3,8-diazabicyclo[3.2.1]octan-3-yl)-2-(((S)-1-methylpyrrolidin-2-yl)methoxy)-5,8-dihydropyrido[3,4-d]pyrimidin-7(6H)-yl)-5-chloro-4-(trifluoromethyl)aniline] showed an IC50 [1] of 0.0098 µM, an IC50 [2] of 2.39 µM and an IC50 [3] of 1.95 µM.

Compound `Cc1cccc2cccc(N3CCc4c(nc(OC[C@@H]5CCCN5C)nc4N4CC5CCC4CN5)C3)c12` (stereo partly drawn) [Example 6, 2-(7-(8-methylnaphthalen-1-yl)-2-(((S)-1-methylpyrrolidin-2-yl)methoxy)-5,6,7,8-tetrahydropyrido[3,4-d]pyrimidin-4-yl)-2,5-diazabicyclo[2.2.2]octane] has an IC50 [1] of 0.713 µM and an IC50 [2] greater than 50 µM.

For `Cc1cccc2cccc(N3CCc4c(nc(OC[C@@H]5CCCN5C)nc4N4CCNCC4)C3)c12` [Example 1, (S)-7-(8-methylnaphthalen-1-yl)-2-((1-methylpyrrolidin-2-yl)methoxy)-4-(piperazin-1-yl)-5,6,7,8-tetrahydropyrido[3,4-d]pyrimidine], the IC50 [1] was 22.7 µM and the IC50 [2] was greater than 50 µM.

`Cc1cccc2cccc(N3CCc4c(nc(OC[C@@H]5CCCN5C)nc4N4CC5CC4CN5)C3)c12` (stereo partly drawn) [Example 4, 4-(2,5-diazabicyclo[2.2.1]heptan-2-yl)-7-(8-methylnaphthalen-1-yl)-2-(((S)-1-methylpyrrolidin-2-yl)methoxy)-5,6,7,8-tetrahydropyrido[3,4-d]pyrimidine] gave an IC50 [1] of 2.59 µM and an IC50 [2] greater than 50 µM.
